Our source for the mortality values is US12478067B2, “Heterocyclic compound and harmful arthropod pest control composition containing same” (SUMITOMO CHEMICAL COMPANY, LIMITED, priority 2019, dated 2025).

Structures are written as SMILES.

What all share (type): in vivo
The test system of experiment [1] is common house mosquito (Culex pipiens pallens). As to the kind of experiment: whole plant or invertebrate. Particulars: 24 h, Test Example 8, last instar larvae, after 1 day, 25° C., read-out: mortality of insects. From the text:
Mortality (%)=(Number of dead insects/Number of tested insects)×100

Experiment [2] has as its system housefly (Musca domestica). As to the kind of experiment: Test method 6: filter paper with sucrose bait, housefly female adults. Particulars: Test Example 6, 0.7 ml on filter paper with sucrose bait, after 24 hours, 25° C., read-out: mortality of insects. The procedure:
A filter paper having a diameter of 5.5 cm in diameter is spread on the bottom of the cup, and then 0.7 ml of the diluted solutions are added dropwise to the filter paper and 30 mg of sucrose is uniformly placed on the filter paper as a bait. Ten (10) housefly (Musca domestica) female adults are released into the cup, and the cup is then covered with the lid. […] Mortality (%)=(Number of dead insects/Number of tested insects)×100

In experiment [3] the test system is Western corn rootworms (Diabrotica virgifera virgifera). As to the kind of experiment: whole plant or invertebrate. Particulars: 120 h, Test Example 9-1, corn seedling immersed 30 seconds, second instar larvae, after 5 days, 25° C., read-out: mortality of insects. The procedure:
Each 1 mg of the test compounds is dissolved into 50 μL of a mixed solution of polyoxyethylene sorbitan mono-cocoate and acetone (polyoxyethylene sorbitan mono-cocoate:acetone=5:95 (v/v ratio)).
A young entire seedling of Corns (Zea mays) is immersed into the diluted solution for 30 seconds. […] Mortality (%)=(Number of dead insects/10}×100

The test system of experiment [4] is housefly (Musca domestica). As to the kind of experiment: Test method 7: coated container, housefly female adults. Particulars: Test Example 7-1, container coated at 40 mg/m^2 (800 ppm acetone solution), elapsed time 1 hour, 25° C., read-out: mortality of insects. The procedure: An acetone solution which is adjusted to 800 ppm of the test compound is poured into a container having 20 mL contents, and the test compound is coated uniformly on inner face of the container so as to make 40 mg/m^2 thereof, and the container is then allowed to dry.
Into the container, five (5) housefly (Musca domestica) female adults are released into the container, and the container is then covered with the lid. […] Mortality (%)=(Number of dead insects/Number of tested insects)×100

For the compound `CCSc1c(-n2cnc3cc(C(F)(F)F)ccc3c2=O)nc2cc(C(F)(F)F)ccn12` [Present compound 2-15], the mortality – broadly, the share of the test organisms that died – at 3.5 ppm in experiment [1] is at least 91%. For the same compound, in experiment [2], the mortality at 500 ppm is at least 70%.
On to `CCSc1c(-n2cnc3cc(C(F)(F)F)ccc3c2=O)nc2ccc(Br)cn12` [Present compound 2-1], for which the mortality at 3.5 ppm in experiment [1] is at least 91%. Besides, the mortality at 500 ppm in experiment [3] was at least 80%.
As for `CCSc1c(-n2nnc3ccc(C(F)(F)F)cc3c2=O)nc2ccc(Br)cn12` [Present compound 4-2], the mortality at 40 mg/m2 in experiment [4] was at least 80%. The mortality at 3.5 ppm in experiment [1] is at least 91%. The mortality at 500 ppm in experiment [3] is at least 80%.
